Test results taken from ChEMBL document CHEMBL4346687, “Design, synthesis and biological evaluation of novel uracil derivatives bearing 1, 2, 3-triazole moiety as thymidylate synthase (TS) inhibitors and as potential antitumor drugs” (Eur J Med Chem, 2019).
Each block holds one compound with its values, some of them ahead of it. The source made the active and inactive calls. The calls are words filed in the database; no cut-off is given here.

Assays:
[1] = Cytotoxicity against human HPAEpic cells assessed as reduction in cell viability after 24 hrs by MTT assay; assay type: cell-based; settings: for CC50 at 24 h: HPAEpic cells; for CC50: 24 h
A549 [2] = assay: Antiproliferative activity against human A549 cells assessed as reduction in cell viability at 5 uM after 24 hrs by MTT assay; assay type: functional; settings: A549, 24 h
SGC-7901 = assay: cells; settings: Homo sapiens, SGC-7901, 24 h
Description: Antiproliferative activity against human SGC7901 cells assessed as reduction in cell viability after 24 hrs by MTT assay

OVCAR-3 = assay: cells; settings: Homo sapiens, OVCAR-3, 24 h
Description: Antiproliferative activity against human OVCAR3 cells assessed as reduction in cell viability after 24 hrs by MTT assay

[3] = Selectivity index, ratio of CC50 for cytotoxicity against human IOSE-80 cells to IC50 for antiproliferative activity against human OVCAR3 cells; settings: IOSE-80 cells (CC50) versus OVCAR3 cells (IC50)
[4] = Cytotoxicity against human IOSE-80 cells assessed as reduction in cell viability after 24 hrs by MTT assay; assay type: cell-based; settings: for CC50 at 24 h: IOSE-80 cells; for CC50: 24 h
A549 [5] = assay: Antiproliferative activity against human A549 cells assessed as reduction in cell viability at 20 uM after 24 hrs by MTT assay; assay type: functional; settings: A549, 24 h
[6] = Selectivity index, ratio of CC50 for cytotoxicity against human GES-1 cells to IC50 for antiproliferative activity against human SGC7901 cells; settings: GES-1 cells (CC50) versus SGC7901 cells (IC50)
[7] = (§1) Cytotoxicity against human L02 cells assessed as reduction in cell viability after 24 hrs by MTT assay; assay type: cell-based; settings: L02 cells
[8] = Selectivity index, ratio of CC50 for cytotoxicity against human HPAEpic cells to IC50 for antiproliferative activity against human A549 cells; settings: HPAEpic cells (CC50) versus A549 cells (IC50)
Thymidylate synthase = Thymidylate synthase (Homo sapiens, UniProt P04818); assay: Inhibition of human thymidylate synthase using dUMP as substrate by spectrophotometric method
HepG2 = assay: cells; settings: Homo sapiens, HepG2, 24 h
Description: Antiproliferative activity against human HepG2 cells assessed as reduction in cell viability after 24 hrs by MTT assay

A549 [9] = assay: Antiproliferative activity against human A549 cells assessed as reduction in cell viability at 0.625 uM after 24 hrs by MTT assay; assay type: functional; settings: A549, 24 h
[10] = (§2) Cytotoxicity against human GES-1 cells assessed as reduction in cell viability after 24 hrs by MTT assay; assay type: cell-based, GES1; settings: GES-1 cells
A549 [11] = assay: Antiproliferative activity against human A549 cells assessed as reduction in cell viability at 1.25 uM after 24 hrs by MTT assay; assay type: functional; settings: A549, 24 h
[12] = Selectivity index, ratio of CC50 for cytotoxicity against human L02 cells to IC50 for antiproliferative activity against human HepG2 cells; settings: L02 cells (CC50) versus HepG2 cells (IC50)
A549 [13] = assay: Antiproliferative activity against human A549 cells assessed as reduction in cell viability at 10 uM after 24 hrs by MTT assay; assay type: functional; settings: A549, 24 h
L02 = assay: as §1; assay type: cell-based; settings: l02, 24 h
GES1 = assay: as §2; assay type: cell-based; settings: ges1, 24 h
A549 [14] = assay: cells; settings: Homo sapiens, A549, 24 h
Description: Antiproliferative activity against human A549 cells assessed as reduction in cell viability after 24 hrs by MTT assay

A549 [15] = assay: Induction of apoptosis in human A549 cells assessed as viable cells at 1 uM after 24 hrs by Annexin V-FITC/propidium iodide staining based flow cytometric analysis (reference value: 98.2%); assay type: functional; settings: A549, 24 h, read-out: Activity
A549 [16] = assay: Induction of apoptosis in human A549 cells assessed as early apoptotic cells at 0.5 uM after 24 hrs by Annexin V-FITC/propidium iodide staining based flow cytometric analysis (reference value: 0.6%); assay type: functional
A549 [17] = assay: Cell cycle arrest in human A549 cells assessed as increase in G0/G1 phase at 0.5 to 1.5 uM after 24 hrs by propidium iodide staining based flow cytometric analysis; assay type: functional
A549 [18] = assay: Induction of apoptosis in human A549 cells assessed as down regulation of Bcl-2 protein expression at 0.5 to 1.5 uM after 24 hrs by Western blot analysis; assay type: functional, cell-based
A549 [19] = assay: Cell cycle arrest in human A549 cells assessed as decrease in Cyclin D protein expression at 0.5 to 1.5 uM after 24 hrs by Western blot analysis; assay type: functional, cell-based
A549 [20] = assay: Induction of apoptosis in human A549 cells assessed as up regulation of Bax protein expression at 0.5 to 1.5 uM after 24 hrs by Western blot analysis; assay type: functional, cell-based
A549 [21] = assay: Induction of apoptosis in human A549 cells assessed as necrotic cells at 1 uM after 24 hrs by Annexin V-FITC/propidium iodide staining based flow cytometric analysis (reference value: 0.1%); assay type: functional
A549 [22] = assay: Cell cycle arrest in human A549 cells assessed as decrease in S phase at 0.5 to 1.5 uM after 24 hrs by propidium iodide staining based flow cytometric analysis; assay type: functional
A549 [23] = assay: Induction of apoptosis in human A549 cells assessed as early apoptotic cells at 1 uM after 24 hrs by Annexin V-FITC/propidium iodide staining based flow cytometric analysis (reference value: 0.6%); assay type: functional
A549 [24] = assay: Induction of early apoptosis in human A549 cells after 24 hrs by Annexin V-FITC/propidium iodide staining based flow cytometric analysis; assay type: functional, cell-based
A549 [25] = assay: Induction of apoptosis in human A549 cells assessed as decrease in ratio of Bcl-2/Bax at 0.5 to 1.5 uM after 24 hrs by Western blot analysis; assay type: functional, cell-based
A549 [26] = assay: Induction of apoptosis in human A549 cells assessed as viable cells at 1.5 uM after 24 hrs by Annexin V-FITC/propidium iodide staining based flow cytometric analysis (reference value: 98.2%); assay type: functional; settings: A549, 24 h, read-out: Activity
A549 [27] = assay: Induction of apoptosis in human A549 cells assessed as necrotic cells at 1.5 uM after 24 hrs by Annexin V-FITC/propidium iodide staining based flow cytometric analysis (reference value: 0.1%); assay type: functional
A549 [28] = assay: Induction of apoptosis in human A549 cells assessed as late apoptotic cells at 1 uM after 24 hrs by Annexin V-FITC/propidium iodide staining based flow cytometric analysis (reference value: 1.1%); assay type: functional
A549 [29] = assay: Induction of late apoptosis in human A549 cells after 24 hrs by Annexin V-FITC/propidium iodide staining based flow cytometric analysis; assay type: functional, cell-based
A549 [30] = assay: Induction of apoptosis in human A549 cells assessed as viable cells at 0.5 uM after 24 hrs by Annexin V-FITC/propidium iodide staining based flow cytometric analysis (reference value: 98.2%); assay type: functional; settings: A549, 24 h, read-out: Activity
A549 [31] = assay: Cell cycle arrest in human A549 cells assessed as decrease in Cyclin E protein expression at 0.5 to 1.5 uM after 24 hrs by Western blot analysis; assay type: functional, cell-based
A549 [32] = assay: Induction of apoptosis in human A549 cells assessed as late apoptotic cells at 1.5 uM after 24 hrs by Annexin V-FITC/propidium iodide staining based flow cytometric analysis (reference value: 1.1%); assay type: functional
A549 [33] = assay: Cell cycle arrest in human A549 cells assessed as decrease in G2/M phase at 0.5 to 1.5 uM after 24 hrs by propidium iodide staining based flow cytometric analysis; assay type: functional
A549 [34] = assay: Induction of apoptosis in human A549 cells assessed as early apoptotic cells at 1.5 uM after 24 hrs by Annexin V-FITC/propidium iodide staining based flow cytometric analysis (reference value: 0.6%); assay type: functional
A549 [35] = assay: Induction of apoptosis in human A549 cells assessed as late apoptotic cells at 0.5 uM after 24 hrs by Annexin V-FITC/propidium iodide staining based flow cytometric analysis (reference value: 1.1%); assay type: functional
A549 [36] = assay: Induction of apoptosis in human A549 cells assessed as activation of caspase-3 protein level at 0.5 to 1.5 uM after 24 hrs by Western blot analysis; assay type: functional, cell-based
A549 [37] = assay: Induction of apoptosis in human A549 cells assessed as necrotic cells at 0.5 uM after 24 hrs by Annexin V-FITC/propidium iodide staining based flow cytometric analysis (reference value: 0.1%); assay type: functional
A549 [38] = assay: Induction of apoptosis in human A549 cells assessed as increase in cleaved caspase-3 protein level at 0.5 to 1.5 uM after 24 hrs by Western blot analysis; assay type: functional, cell-based

Thymidylate synthase, sequence (P04818 whole entry): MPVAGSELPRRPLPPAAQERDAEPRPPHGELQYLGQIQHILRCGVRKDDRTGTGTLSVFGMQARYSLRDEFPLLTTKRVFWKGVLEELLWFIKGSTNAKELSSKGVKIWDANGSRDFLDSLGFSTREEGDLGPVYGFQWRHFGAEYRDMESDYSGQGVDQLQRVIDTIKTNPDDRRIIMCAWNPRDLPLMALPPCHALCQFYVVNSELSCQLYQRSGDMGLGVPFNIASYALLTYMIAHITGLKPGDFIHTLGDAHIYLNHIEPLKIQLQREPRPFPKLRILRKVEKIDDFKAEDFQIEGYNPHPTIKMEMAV

SMILES: Nc1nc2[nH]cc(CCc3ccc(C(=O)N[C@@H](CCC(=O)O)C(=O)O)cc3)c2c(=O)[nH]1 [PEMETREXED DISODIUM]
CC50 at 24 h [1]: 25.4 µM
inhibition at 5 µM (A549 [2]): 47.1%
IC50 (SGC-7901): 6.96 µM
IC50 (OVCAR-3): 4.35 µM
selectivity ratio [3]: 3.56
CC50 at 24 h [4]: 15.5 µM
inhibition at 20 µM (A549 [5]): 74.7%
selectivity ratio [6]: 3.25
CC50 at 24 h [7]: 30.7 µM
selectivity ratio [8]: 7.71
IC50 (Thymidylate synthase): 2.04 µM
IC50 (HepG2): 3.73 µM
inhibition at 0.625 µM (A549 [9]): 27.2%
CC50 at 24 h [10]: 22.6 µM
inhibition at 1.25 µM (A549 [11]): 39.9%
selectivity ratio [12]: 8.23
inhibition at 10 µM (A549 [13]): 58.7%

SMILES: O=c1[nH]cc(S(=O)(=O)Nc2cccc(-c3cn(-c4ccccc4F)nn3)c2)c(=O)[nH]1
CC50 [1]: Non-Toxic
IC50 (SGC-7901): 16 µM
IC50 (OVCAR-3): 12.5 µM
CC50 [4]: Non-Toxic
CC50 (L02): Non-Toxic
IC50 (HepG2): 13.9 µM
CC50 (GES1): Non-Toxic
IC50 (A549 [14]): > 20 µM

SMILES: O=c1[nH]cc(S(=O)(=O)Nc2ccc(-c3cn(-c4ccccc4)nn3)cc2)c(=O)[nH]1
CC50 [1]: Non-Toxic
IC50 (SGC-7901): 18.8 µM
IC50 (OVCAR-3): 18 µM
CC50 [4]: Non-Toxic
CC50 (L02): Non-Toxic
IC50 (HepG2): 18 µM
CC50 (GES1): Non-Toxic
IC50 (A549 [14]): 7.17 µM

More lines, main results first:

IC50 (SGC-7901): > 20 µM
IC50 (OVCAR-3): > 20 µM
IC50 (HepG2): > 20 µM
IC50 (A549 [14]): 6.39 µM
SMILES: O=c1[nH]cc(S(=O)(=O)Nc2ccccc2-c2cn(-c3ccc(F)cc3)nn2)c(=O)[nH]1
CC50 [1]: Non-Toxic
CC50 [4]: Non-Toxic
CC50 (L02): Non-Toxic
CC50 (GES1): Non-Toxic

IC50 (SGC-7901): > 20 µM
IC50 (OVCAR-3): > 20 µM
IC50 (HepG2): > 20 µM
IC50 (A549 [14]): 8.13 µM
SMILES: O=c1[nH]cc(S(=O)(=O)Nc2ccccc2-c2cn(-c3cccc(F)c3)nn2)c(=O)[nH]1
CC50 at 24 h [1]: > 100 µM
CC50 [4]: Non-Toxic
CC50 (L02): Non-Toxic
CC50 (GES1): Non-Toxic

IC50 (SGC-7901): 2.7 µM
IC50 (OVCAR-3): 1.75 µM
IC50 (HepG2): 1.84 µM
IC50 (A549 [14]): 1.18 µM
SMILES: O=c1[nH]cc(S(=O)(=O)Nc2ccccc2-c2cn(-c3ccc(Cl)cc3)nn2)c(=O)[nH]1
CC50 at 24 h [1]: 20.4 µM
viability at 1 µM (A549 [15]): 89.7%
Activity (A549 [16]): 1.3%
Activity (A549 [17]): Dose-dependent effect
inhibition at 5 µM (A549 [2]): 75.5%
Activity (A549 [18]): Active
Activity (A549 [19]): Dose-dependent effect
Activity (A549 [20]): Active
Activity (A549 [21]): 1.2%
Activity (A549 [22]): Dose-dependent effect
CC50 at 24 h [4]: 16.5 µM
Activity (A549 [23]): 3.5%
Activity (A549 [24]): Dose-dependent effect
Activity (A549 [25]): Active
inhibition at 20 µM (A549 [5]): 80.2%
viability at 1.5 µM (A549 [26]): 84.2%
CC50 at 24 h [7]: 16.8 µM
Activity (A549 [27]): 4.5%
Activity (A549 [28]): 5.6%
Activity (A549 [29]): Dose-dependent effect
viability at 0.5 µM (A549 [30]): 96.5%
Activity (A549 [31]): Dose-dependent effect
Activity (A549 [32]): 7.1%
inhibition at 0.625 µM (A549 [9]): 32%
Activity (A549 [33]): Dose-dependent effect
CC50 at 24 h [10]: 26.7 µM
Activity (A549 [34]): 4.1%
inhibition at 1.25 µM (A549 [11]): 55.5%
Activity (A549 [35]): 2.1%
Activity (A549 [36]): Active
Activity (A549 [37]): 0.1%
inhibition at 10 µM (A549 [13]): 77.3%
Activity (A549 [38]): Active

IC50 (SGC-7901): > 20 µM
IC50 (OVCAR-3): > 20 µM
IC50 (HepG2): > 20 µM
IC50 (A549 [14]): 9.98 µM
SMILES: O=c1[nH]cc(S(=O)(=O)Nc2ccc(-c3cn(-c4cccc(F)c4)nn3)cc2)c(=O)[nH]1
CC50 [1]: Non-Toxic
CC50 [4]: Non-Toxic
CC50 (L02): Non-Toxic
CC50 (GES1): Non-Toxic
